Assay results reported in BindingDB's records for doi:10.1016/s0960-894x(02)00294-9 (Glaxosmithkline, 2002).

Biological target: Human cytomegalovirus protease (HHV-5)
Assay: Tested in vitro for its binding affinity against Protease

Row | Compound | Ki [nM]
1 | C[C@@H]1[C@H](C)[C@@H]1C(=O)N1C(=O)[C@@H](C)[C@@H]2[C@@H]1CCN2C(=O)[C@@H]1CCCN1S(=O)(=O)c1cccc2c(N(C)C)cccc12 [4-[1-(5-dimethylamino-1-naphthylsulfonyl)tetrahydro-1H-2-pyrrolylcarbonyl]-1-(2,3-dimethylcyclopropylcarbonyl)-3-methylperhydropyrrolo[3,2-b]pyrrol-2-one] | 1100
2 | C[C@@H]1C(=O)N(c2nccs2)[C@H]2CCN(C(=O)[C@@H]3CCCN3S(=O)(=O)c3cccc4c(N(C)C)cccc34)[C@H]12 [(3S,3aR,6aS)-4-[(S)-1-(5-Dimethylamino-naphthalene-1-sulfonyl)-pyrrolidine-2-carbonyl]-3-methyl-1-thiazol-2-yl-hexahydro-pyrrolo[3,2-b]pyrrol-2-one] | 400
